Data as given in ChEMBL document CHEMBL3044921, “Synthesis, characterization, and SAR studies of new (1H-indol-3-yl)alkyl-3-(1H-indol-3-yl)propanamide derivatives as possible antimicrobial and antitubercular agents” (2013).
Converted amounts (≈) assume the structure as drawn.

Legend:
Talaromyces marneffei [1] = assay: Antifungal activity against Talaromyces marneffei assessed as growth inhibition at […] to […] ug/ml after 3 to 4 days by agar well diffusion method; type: functional
Aspergillus fumigatus [2] = assay: Antifungal activity against Aspergillus fumigatus NCIM 902 assessed as growth inhibition at […] to […] ug/ml after 3 to 4 days by agar well diffusion method; type: functional
Aspergillus flavus [3] = assay: Antifungal activity against Aspergillus flavus NCIM 524 assessed as growth inhibition at […] to […] ug/ml after 3 to 4 days by agar well diffusion method; type: functional
Candida albicans [4] = assay: Antifungal activity against Candida albicans assessed as growth inhibition after 3 to 4 days by serial plate dilution method; type: functional
[5] = test system: Trichophyton mentagrophytes; assay: Antifungal activity against Trichophyton mentagrophytes assessed as growth inhibition after 3 to 4 days by serial plate dilution method; type: functional
Talaromyces marneffei [6] = assay: Antifungal activity against Talaromyces marneffei assessed as growth inhibition after 3 to 4 days by serial plate dilution method; type: functional
Aspergillus fumigatus [7] = assay: Antifungal activity against Aspergillus fumigatus NCIM 902 assessed as growth inhibition after 3 to 4 days by serial plate dilution method; type: functional
Aspergillus flavus [8] = assay: Antifungal activity against Aspergillus flavus NCIM 524 assessed as growth inhibition after 3 to 4 days by serial plate dilution method; type: functional
Streptococcus pyogenes [9] = type: functional
Description: Antibacterial activity against Streptococcus pyogenes assessed as growth inhibition at 1.56 to 25 ug/ml after 3 to 4 days by agar well diffusion method

Klebsiella pneumoniae [10] = type: functional
Description: Antibacterial activity against Klebsiella pneumoniae assessed as growth inhibition at 1.56 to 25 ug/ml after 3 to 4 days by agar well diffusion method

Pseudomonas aeruginosa [11] = type: functional, ATCC 27853
Description: Antibacterial activity against Pseudomonas aeruginosa ATCC 27853 assessed as growth inhibition at 1.56 to 25 ug/ml after 3 to 4 days by agar well diffusion method

Staphylococcus aureus [12] = type: functional, ATCC 25923
Description: Antibacterial activity against Staphylococcus aureus ATCC 25923 assessed as growth inhibition at 1.56 to 25 ug/ml after 3 to 4 days by agar well diffusion method

Streptococcus pyogenes [13] = assay: Antibacterial activity against Streptococcus pyogenes assessed as growth inhibition after 16 to 18 hr by serial plate dilution method; type: functional
[14] = test system: Mycolicibacterium fortuitum; assay: Antitubercular activity against Mycobacterium fortuitum ATCC 19542 assessed as growth inhibition at 0.3125 to 5 ug/mL after 7 days by resazurin reduction test; type: functional; details: ATCC 19542, 168 h
[15] = test system: Mycolicibacterium smegmatis; assay: Antitubercular activity against Mycobacterium smegmatis ATCC 19420 assessed as growth inhibition at 0.3125 to 5 ug/mL after 7 days by resazurin reduction test; type: functional; details: ATCC 19420, 168 h
[16] = test system: Mycobacterium tuberculosis; assay: Antitubercular activity against Mycobacterium tuberculosis H37Rv ATCC 27294 assessed as growth inhibition at 0.3125 to 5 ug/mL after 7 days by resazurin reduction test; type: functional; details: H37Rv ATCC 27294, 168 h
[17] = test system: Mycolicibacterium smegmatis; assay: Antitubercular activity against Mycobacterium smegmatis ATCC 19420 assessed as growth inhibition at 1 to 100 ug/mL after 7 days by resazurin reduction test; type: functional; details: ATCC 19420, 168 h
[18] = test system: Mycolicibacterium fortuitum; assay: Antitubercular activity against Mycobacterium fortuitum ATCC 19542 assessed as growth inhibition at 1 to 100 ug/mL after 7 days by resazurin reduction test; type: functional; details: ATCC 19542, 168 h
[19] = test system: Mycobacterium tuberculosis; assay: Antitubercular activity against Mycobacterium tuberculosis H37Rv ATCC 27294 assessed as growth inhibition at 1 to 100 ug/mL after 7 days by resazurin reduction test; type: functional; details: for MIC: Mycobacterium tuberculosis, H37Rv ATCC 27294, 168 h
Candida albicans [20] = assay: Antifungal activity against Candida albicans assessed as growth inhibition at […] to […] ug/ml after 3 to 4 days by agar well diffusion method; type: functional
[21] = test system: Trichophyton mentagrophytes; assay: Antifungal activity against Trichophyton mentagrophytes assessed as growth inhibition at […] to […] ug/ml after 3 to 4 days by agar well diffusion method; type: functional
Klebsiella pneumoniae [22] = assay: Antibacterial activity against Klebsiella pneumoniae assessed as growth inhibition after 16 to 18 hr by serial plate dilution method; type: functional
Pseudomonas aeruginosa [23] = assay: Antibacterial activity against Pseudomonas aeruginosa ATCC 27853 assessed as growth inhibition after 16 to 18 hr by serial plate dilution method; type: functional
Escherichia coli [24] = assay: Antibacterial activity against Escherichia coli […] assessed as growth inhibition after 16 to 18 hr by serial plate dilution method; type: functional
Staphylococcus aureus [25] = assay: Antibacterial activity against Staphylococcus aureus ATCC 25923 assessed as growth inhibition after 16 to 18 hr by serial plate dilution method; type: functional
Escherichia coli [26] = type: functional, ATCC 24922
Description: Antibacterial activity against Escherichia coli ATCC 24922 assessed as growth inhibition at 1.56 to 25 ug/ml after 3 to 4 days by agar well diffusion method

SMILES	diameter of the inhibition zone (DIZ) (Talaromyces marneffei [1])	diameter of the inhibition zone (DIZ) (Aspergillus fumigatus [2])	diameter of the inhibition zone (DIZ) (Aspergillus flavus [3])	MIC (Candida albicans [4])	MIC [5]	MIC (Talaromyces marneffei [6])	MIC (Aspergillus fumigatus [7])	MIC (Aspergillus flavus [8])	diameter of the inhibition zone (DIZ) (Streptococcus pyogenes [9])	diameter of the inhibition zone (DIZ) (Klebsiella pneumoniae [10])	diameter of the inhibition zone (DIZ) (Pseudomonas aeruginosa [11])	diameter of the inhibition zone (DIZ) (Staphylococcus aureus [12])	MIC (Streptococcus pyogenes [13])	MIC [14]	MIC [15]	MIC [16]	MIC [17]	MIC [18]	growth inhibition (GI) [19]	MIC [19]	other results
O=C(CCc1c[nH]c2ccc(Cl)cc12)NCc1c[nH]c2ccc(OC(F)(F)F)cc12	16 mm	16 mm	16 mm	6.25 µg/mL (≈ 14.3 µM)	6.25 µg/mL (≈ 14.3 µM)	6.25 µg/mL (≈ 14.3 µM)	6.25 µg/mL (≈ 14.3 µM)	6.25 µg/mL (≈ 14.3 µM)	11 mm	16 mm	16 mm	16 mm	12.5 µg/mL (≈ 28.7 µM)	1.25 µg/mL (≈ 2.87 µM)	1.25 µg/mL (≈ 2.87 µM)	1.25 µg/mL (≈ 2.87 µM)	1 µg/mL (≈ 2.29 µM)	10 µg/mL (≈ 22.9 µM)	90%	1 µg/mL (≈ 2.29 µM)	diameter of the inhibition zone (DIZ) (Candida albicans [20]): 16 mm; diameter of the inhibition zone (DIZ) [21]: 16 mm; MIC (Klebsiella pneumoniae [22]): 6.25 µg/mL (≈ 14.3 µM); MIC (Pseudomonas aeruginosa [23]): 6.25 µg/mL (≈ 14.3 µM); MIC (Escherichia coli [24]): 6.25 µg/mL (≈ 14.3 µM); MIC (Staphylococcus aureus [25]): 6.25 µg/mL (≈ 14.3 µM); diameter of the inhibition zone (DIZ) (Escherichia coli [26]): 16 mm
Cc1[nH]c2ccc(OC(F)(F)F)cc2c1CNC(=O)CCc1c[nH]c2ccc(Cl)cc12	16 mm	<10 mm	16 mm	25 µg/mL (≈ 55.6 µM)	25 µg/mL (≈ 55.6 µM)	6.25 µg/mL (≈ 13.9 µM)	25 µg/mL (≈ 55.6 µM)	6.25 µg/mL (≈ 13.9 µM)	16 mm	<10 mm	16 mm	16 mm	6.25 µg/mL (≈ 13.9 µM)	10 µg/mL (≈ 22.2 µM)	10 µg/mL (≈ 22.2 µM)	0.625 µg/mL (≈ 1.39 µM)	10 µg/mL (≈ 22.2 µM)	10 µg/mL (≈ 22.2 µM)	95%	1 µg/mL (≈ 2.22 µM)	diameter of the inhibition zone (DIZ) (Candida albicans [20]): <10 mm; diameter of the inhibition zone (DIZ) [21]: <10 mm; MIC (Klebsiella pneumoniae [22]): 25 µg/mL (≈ 55.6 µM); MIC (Pseudomonas aeruginosa [23]): 6.25 µg/mL (≈ 13.9 µM); MIC (Escherichia coli [24]): 12.5 µg/mL (≈ 27.8 µM); MIC (Staphylococcus aureus [25]): 6.25 µg/mL (≈ 13.9 µM); diameter of the inhibition zone (DIZ) (Escherichia coli [26]): 11 mm
Cn1cc(CCC(=O)NCc2c[nH]c3ccc(OC(F)(F)F)cc23)c2cc(Cl)ccc21	11 mm	16 mm	16 mm	12.5 µg/mL (≈ 27.8 µM)	25 µg/mL (≈ 55.6 µM)	12.5 µg/mL (≈ 27.8 µM)	6.25 µg/mL (≈ 13.9 µM)	6.25 µg/mL (≈ 13.9 µM)	16 mm	16 mm	16 mm	16 mm	6.25 µg/mL (≈ 13.9 µM)	10 µg/mL (≈ 22.2 µM)	1.25 µg/mL (≈ 2.78 µM)	0.625 µg/mL (≈ 1.39 µM)	1 µg/mL (≈ 2.22 µM)	10 µg/mL (≈ 22.2 µM)	95%	1 µg/mL (≈ 2.22 µM)	diameter of the inhibition zone (DIZ) (Candida albicans [20]): 11 mm; diameter of the inhibition zone (DIZ) [21]: <10 mm; MIC (Klebsiella pneumoniae [22]): 6.25 µg/mL (≈ 13.9 µM); MIC (Pseudomonas aeruginosa [23]): 6.25 µg/mL (≈ 13.9 µM); MIC (Escherichia coli [24]): 6.25 µg/mL (≈ 13.9 µM); MIC (Staphylococcus aureus [25]): 6.25 µg/mL (≈ 13.9 µM); diameter of the inhibition zone (DIZ) (Escherichia coli [26]): 16 mm
Cn1cc(CCC(=O)NCc2cn(C)c3ccc(Cl)cc23)c2cc(Cl)ccc21	11 mm	<10 mm	<10 mm	25 µg/mL (≈ 60.3 µM)	25 µg/mL (≈ 60.3 µM)	12.5 µg/mL (≈ 30.2 µM)	25 µg/mL (≈ 60.3 µM)	25 µg/mL (≈ 60.3 µM)	<10 mm	11 mm	11 mm	<10 mm	25 µg/mL (≈ 60.3 µM)	10 µg/mL (≈ 24.1 µM)	10 µg/mL (≈ 24.1 µM)	10 µg/mL (≈ 24.1 µM)	> 100 µg/mL	10 µg/mL (≈ 24.1 µM)	<90%	> 100 µg/mL	diameter of the inhibition zone (DIZ) (Candida albicans [20]): <10 mm; diameter of the inhibition zone (DIZ) [21]: <10 mm; MIC (Klebsiella pneumoniae [22]): 12.5 µg/mL (≈ 30.2 µM); MIC (Pseudomonas aeruginosa [23]): 12.5 µg/mL (≈ 30.2 µM); MIC (Escherichia coli [24]): 12.5 µg/mL (≈ 30.2 µM); MIC (Staphylococcus aureus [25]): 25 µg/mL (≈ 60.3 µM); diameter of the inhibition zone (DIZ) (Escherichia coli [26]): 11 mm
O=C(CCc1c[nH]c2ccc(Cl)cc12)NCc1c[nH]c2ccc(Cl)cc12	<10 mm	16 mm	<10 mm	25 µg/mL (≈ 64.7 µM)	6.25 µg/mL (≈ 16.2 µM)	25 µg/mL (≈ 64.7 µM)	6.25 µg/mL (≈ 16.2 µM)	25 µg/mL (≈ 64.7 µM)	11 mm	16 mm	16 mm	16 mm	12.5 µg/mL (≈ 32.4 µM)	10 µg/mL (≈ 25.9 µM)	1.25 µg/mL (≈ 3.24 µM)	0.625 µg/mL (≈ 1.62 µM)	1 µg/mL (≈ 2.59 µM)	10 µg/mL (≈ 25.9 µM)	90%	1 µg/mL (≈ 2.59 µM)	diameter of the inhibition zone (DIZ) (Candida albicans [20]): <10 mm; diameter of the inhibition zone (DIZ) [21]: 16 mm; MIC (Klebsiella pneumoniae [22]): 6.25 µg/mL (≈ 16.2 µM); MIC (Pseudomonas aeruginosa [23]): 6.25 µg/mL (≈ 16.2 µM); MIC (Escherichia coli [24]): 6.25 µg/mL (≈ 16.2 µM); MIC (Staphylococcus aureus [25]): 6.25 µg/mL (≈ 16.2 µM); diameter of the inhibition zone (DIZ) (Escherichia coli [26]): 16 mm
Cc1[nH]c2ccc(OC(F)(F)F)cc2c1CNC(=O)CCc1cn(C)c2ccc(Cl)cc12	<10 mm	<10 mm	<10 mm	12.5 µg/mL (≈ 26.9 µM)	25 µg/mL (≈ 53.9 µM)	25 µg/mL (≈ 53.9 µM)	25 µg/mL (≈ 53.9 µM)	25 µg/mL (≈ 53.9 µM)	11 mm	16 mm	<10 mm	<10 mm	12.5 µg/mL (≈ 26.9 µM)	1.25 µg/mL (≈ 2.69 µM)	1.25 µg/mL (≈ 2.69 µM)	1.25 µg/mL (≈ 2.69 µM)	1 µg/mL (≈ 2.16 µM)	10 µg/mL (≈ 21.6 µM)	90%	1 µg/mL (≈ 2.16 µM)	diameter of the inhibition zone (DIZ) (Candida albicans [20]): 11 mm; diameter of the inhibition zone (DIZ) [21]: <10 mm; MIC (Klebsiella pneumoniae [22]): 6.25 µg/mL (≈ 13.5 µM); MIC (Pseudomonas aeruginosa [23]): 25 µg/mL (≈ 53.9 µM); MIC (Escherichia coli [24]): 6.25 µg/mL (≈ 13.5 µM); MIC (Staphylococcus aureus [25]): 25 µg/mL (≈ 53.9 µM); diameter of the inhibition zone (DIZ) (Escherichia coli [26]): 16 mm
